In one test the target is T1, NAALADase (Homo sapiens, UniProt Q04609).
T1 construct: from tissue; host or cells: unspecified tissue
In words: In vitro inhibition of NAALADase activity. The format is biochemical. The following applies: average IC50 values. As for the experimental part:
Various compounds of the invention were tested for in vitro inhibition of NAALADase activity. The average IC50 values of the tested compounds are provided bewlow in Table II.
Protocol for Assaying In Vitro Inhibition of NAALADase Activity
The following were combined in assay tubes: 100 μL of 10 mM CoCl2, 250 μL of 200 mM Tris chloride, 100 μL tissue, 100 μL of 10 mM NAALADase inhibitor in Bakers H2O, and Bakers H2O to make a total volume of 950 μL. Each assay tube was then incubated for 10 minutes in a 37° C. water bath. 50 μL of 3-H-NAAG was then added to each assay tube and incubated for an additional 15 minutes in at 37° C. water bath. The assay was stopped by adding 1.0 ml of 0.1 M sodium phosphate.
Glutamate released by the action of the NAALADase enzyme was separated from the assay solution using an anion exchange resin. The resin was equilibrated to 25° C., 2.0 ml of the resin was added to a Pasteur pipette pre-loaded with a single glass bead, and each column was washed twice with distilled H2O. A column was placed over a scintillation vial and 200 μL of an assay sample was loaded onto the column. After draining, glutamate was eluted using two 1.0 ml washes of 1 M formic acid. After addition of 10 ml of scintillation cocktail, each sample was counted for 2 minutes on a scintillation counter.

For the next test, the system named is BB/W diabetic rats. Briefly: Progression of neuropathic pain and nerve conduction deficits in BB/W model. The format is in vivo, Male BB/W rats. The text has this: Male BB/W rats (BRI, Mass) spontaneously develop a cell mediated autoimmune destruction of pancreatic B cells, resulting in onset of insulin-dependent (Type I) diabetes (Guberski 1994). […] This renders them valuable for experimental trials of new compounds for future treatments of this major disorder. In the present study, Compound D and Compound A were examined for their ability to alter the progression of diabetic neuropathy. The rats received daily injection of Compound D or Compound A (10 mg/kg i.p.) or vehicle, starting at the onset of diabetes (hyperglycemia) and up to 6 months thereafter. Another group of non-diabetic rats also receiving vehicle were tested. All animals were continuously monitored for body weight, urine volume, blood sugar and glycated haemoglobin. In the first month of the study, all animals were tested for thermal nociception in a Hargreaves apparatus, weekly. After the first month this was done biweekly and then monthly. The testing consists of directing an infrared heat source onto the dorsal surface of the rat hindpaw and noting the time taken for the animal to remove its paw (see Hargreaves et al., supra, for a description of the experimental method). Each animal was tested 8 times and the mean withdrawal latency noted.
Nerve conduction velocity was also measured every two weeks through the first eight weeks of treatment and every month thereafter through to the six months of treatment (see De Koning et al., Peptides, Vol. 8, No. 3, pp. 415-22 (1987) for a description of the experimental method). […] This was apparent starting at 8 weeks of treatment and persisted to a similar degree through to the six month termination point of the study.

The test system of test [1] is STZ-diabetic rats. Briefly: Reversal of diabetic neuropathy in STZ model, delayed dosing: nerve conduction velocity. It counts as in vivo. The following applies: for motor nerve conduction velocity: daily p.o., within 8 weeks of dosing, persisted through 12 weeks, FIG. 21. As for the experimental part:
(§1) Rats (200-225 grams) were injected with STZ (70 mg/kg) into the tail vein. Diabetes (>350 mg/dl) was confirmed in all rats, 4 weeks after STZ administration. Rats were left untreated until 35-49 days after STZ. Compound D (1, 3, or 10 mg/kg), Compound E (10 mg/kg), or vehicle were dosed daily p.o. following confirmation of hyperalgesia and/or nerve conduction velocity deficits. In separate experiments, onset of treatment was delayed until 60 to 90 days after STZ administration. Nerve conduction velocity or withdrawal response to thermal stimulation of hind paws was measured at intervals, usually bi-weekly for thermal response and monthly for nerve conduction velocity.
Sensory and motor nerve conduction velocities were evaluated using the method of De Koning and Gispen (Peptides 8: 415-422, 1987). Electrophysiological evaluation was carried out within one hour of dosing. Animals were anesthetized with isoflurane and stimulating needle electrodes were inserted close to the sciatic nerve at the sciatic notch and the tibial nerve near the ankle. Recording electrodes were placed over the foot muscles. Stimuli were applied and responses recorded. Motor and sensory nerve conduction velocities were calculated by measuring the distance between the sciatic notch and ankle sites, and the latency between the M-wave and the H-reflex.

For test [2], the system named is STZ-induced diabetic rats. In words: Neuropathic pain in STZ model (thermal nociception, Hargreaves apparatus). The note with it: 10 mg/kg i.p. daily, treatment started 45 days post-STZ, FIGS. 7A and 7B. It counts as in vivo, Male Sprague-Dawley rats. As for the experimental part:
Male Sprague-Dawley rats (200-225 g) were rendered diabetic by intravenous administration of streptozotocin (“STZ”, 70 mg/kg in phosphate buffered saline). Diabetic animals were divided into five groups: one group receiving Compound A (10 mg/kg or 1 mg/kg), Compound D (10 mg/kg or 1 mg/kg) or vehicle. Another group of animals (non-STZ treated) served as non-diabetic controls. Drug/vehicle treatment was started in diabetic animals 45 days post-STZ administration. STZ-induced diabetic rats were tested for sensitivity to a heat source as soon as blood glucose levels rose to 320 mg/dl or above (30 days post STZ). The rats were then acclimated to a Hargreaves apparatus and thermal nociception was monitored using an infrared heat source directed into the dorsal surface of the hindpaw, and the time taken for the animal to remove its paw noted to the nearest 0.1 seconds (see Hargreaves et al., supra, for detailed experimental method). The intensity of the beam source was adjusted such that the mean latency for control animals (non-STZ treated) was approximately 10 seconds. Each animal was tested 8 times and the mean difference score (between mean non-diabetic control latency and mean diabetic latency) are graphically presented in FIGS. 7A and 7B.

Another test has as its system STZ-diabetic animals. In words: Diabetic neuropathy in STZ model (nerve conduction velocity). The format is in vivo, rats. The note with it: either dose (1 or 10 mg/kg), versus diabetic controls, FIGS. 10A and 10B. As for the experimental part:
Motor and sensory nerve conduction velocity was also measured in STZ-diabetic animals after 4, 8 and 12 weeks of treatment (see De Koning et al., supra, for a description of the experimental method). Briefly, stimulating needle electrodes were inserted close to the sciatic and tibial nerves with recording electrodes being placed subcutaneously over the distal foot muscles, in anesthetized rats.

Test [3] has as its system STZ-diabetic rats. In words: Reversal of diabetic neuropathy in STZ model, delayed dosing: thermal hyperalgesia. The following applies: for neuropathic hyperalgesia (withdrawal latency): daily p.o., treatment started 5 weeks post STZ, within two weeks of treatment, FIG. 20. The format is in vivo. As for the experimental part: as §1
Animals were acclimated to the apparatus for at least 5 min. An infrared source was placed under below the plantar surface of the rat hind-paw. The intensity of the source was adjusted so that latency for normal rats was about 10 secs. Animals were tested for thermal response latency according to the method of Hargreaves et al (Pain 77-88, 1988). Each animal was tested 8 times (4 each hind limb) and the latency of response recorded automatically to nearest 0.1 sec. An average of the last 4 measurements for each paw was calculated (8 total measurements) and noted for each rat.

T1 sequence (Q04609 whole entry): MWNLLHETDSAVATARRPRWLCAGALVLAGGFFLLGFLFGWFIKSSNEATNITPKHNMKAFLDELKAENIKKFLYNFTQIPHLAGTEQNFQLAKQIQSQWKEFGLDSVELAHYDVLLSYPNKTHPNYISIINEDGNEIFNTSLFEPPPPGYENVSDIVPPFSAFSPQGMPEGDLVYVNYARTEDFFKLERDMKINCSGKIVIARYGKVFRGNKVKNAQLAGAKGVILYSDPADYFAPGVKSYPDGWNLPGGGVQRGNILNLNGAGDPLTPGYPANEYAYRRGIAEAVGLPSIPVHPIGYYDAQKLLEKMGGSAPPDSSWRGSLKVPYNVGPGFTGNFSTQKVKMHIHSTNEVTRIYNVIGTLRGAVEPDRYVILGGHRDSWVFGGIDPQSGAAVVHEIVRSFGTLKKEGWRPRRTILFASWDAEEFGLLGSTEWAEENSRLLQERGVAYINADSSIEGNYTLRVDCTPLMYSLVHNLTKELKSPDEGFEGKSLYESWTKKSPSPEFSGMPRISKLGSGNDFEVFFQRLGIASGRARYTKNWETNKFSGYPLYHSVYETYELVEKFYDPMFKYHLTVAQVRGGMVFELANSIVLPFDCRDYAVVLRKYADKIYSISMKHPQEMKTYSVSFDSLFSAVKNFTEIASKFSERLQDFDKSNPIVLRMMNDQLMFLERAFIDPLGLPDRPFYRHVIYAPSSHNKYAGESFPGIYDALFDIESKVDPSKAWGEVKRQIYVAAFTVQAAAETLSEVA

As usually defined, the IC50 is the midpoint of a concentration-inhibition curve. A high value points to lower potency. At NAALADase, `CC(C)(C)c1cc(CC(CCC(=O)NO)C(=O)O)cc(C(=O)O)c1` (stereo not drawn) [Compound 2, 3-tert-Butyl-5-(2-carboxy-4-hydroxycarbamoyl-butyl)-benzoic acid] registered an IC50 of 0.06 µM.

`COC(=O)c1cccc(CC(C(=O)O)C(=O)NO)c1` (stereo not drawn) [Compound 10, 3-(2-Carboxy-2-hydroxycarbamoyl-ethyl)-benzoic acid methyl ester] displayed an IC50 against NAALADase of 100 µM.

Take `O=C(CSCCCC(Cc1cccc(C(=O)O)c1)C(=O)O)NO` (stereo not drawn) [Compound 17, 3-(2-Carboxy-5-hydroxycarbamoylmethyl-sulfanylpentyl)-benzoic acid]: half-maximal inhibition against NAALADase (IC50) required 0.4 µM. Compared with the last molecule, the IC50 is about 250-fold lower.

Consider `CCC(SCCCC(Cc1cccc(C(=O)O)c1)C(=O)O)C(=O)NO` (stereo not drawn) [Compound 19, 3-[2-Carboxy-5-(1-hydroxycarbamoyl-propylsulfanyl)-pentyl]-benzoic acid], for which the half-maximal inhibitory concentration (IC50) on NAALADase was 4 µM.

`O=C(CSCCCC(Cc1ccc(C(=O)O)c(Br)c1)C(=O)O)NO` (stereo not drawn) [Compound 65, 2-Bromo-4-(2-carboxy-5-hydroxycarbamoylmethyl-sulfanylpentyl)-benzoic acid] yielded an IC50 at NAALADase of 3 µM.

The molecule `CC(C)(C)c1cc(CC(CCCC(=O)NO)C(=O)O)cc(C(=O)O)c1` (stereo not drawn) [Compound 71] yielded a concentration for half-maximal inhibition (IC50) against NAALADase of 0.5 µM.

Take `O=C(CCC(Cc1cccc(-c2cccc(C(=O)O)c2)c1)C(=O)O)NO` (stereo not drawn) [Compound 72]: the IC50 on NAALADase is 0.05 µM.

Molecule `O=C(CCC(Cc1ccccc1C(=O)O)C(=O)O)NO` (stereo not drawn) [Compound 73] yielded an IC50 on NAALADase of 2 µM.

On to `CS(=O)(=O)c1ccc(CC(CCC(=O)NO)C(=O)O)cc1` (stereo not drawn) [Compound 74], for which the IC50 against NAALADase stood at 3 µM.

`O=C(CCC(Cc1ccc(C(=O)O)cc1)C(=O)O)NO` (stereo not drawn) [Compound 75, 4-[2-carboxy-5-(hydroxyamino)-5-oxopentyl]benzoic acid] showed an IC50 against NAALADase of 0.03 µM. Against the preceding molecule, the IC50 is about 100-fold lower.

`O=CN(O)CCCCC(Cc1cccc(C(=O)O)c1)C(=O)O` (stereo not drawn) [Compound 76] had an IC50 at NAALADase of 100 µM.

Consider `O=CN(O)CCCC(Cc1cccc(C(=O)O)c1)C(=O)O` (stereo not drawn) [Compound 77], for which 2.22 µM corresponded to half-maximal inhibition on NAALADase (IC50).

`O=CN(O)CCC(Cc1cccc(C(=O)O)c1)C(=O)O` (stereo not drawn) [Compound 78] gave a 50% inhibitory concentration (IC50) against NAALADase of 10.3 µM.

In the case of `O=CN(O)CCC(Oc1cccc(C(=O)O)c1)C(=O)O` (stereo not drawn) [Compound 79], at NAALADase, the half-maximal inhibitory concentration (IC50) was found to be 65.5 µM.

At NAALADase, `O=C(O)CNC(=O)c1cc(C(=O)O)cc(C(=O)NO)c1` [Compound 81] yielded an IC50 of 9 µM.

In the case of `O=C(O)CCC(CCC(=O)NO)C(=O)O` (stereo not drawn) [Compound 83], the IC50 against NAALADase amounted to 2 µM. This IC50 is about 4.5-fold lower than that of the molecule before.

Turning to `O=C(O)CCC(=O)NO` [Compound 84], the midpoint of inhibition on NAALADase, the IC50, lay at 40 µM.

On to `O=C(O)CCC(CCCC(=O)NO)C(=O)O` (stereo not drawn) [Compound 85], for which 0.9 µM corresponded to half-maximal inhibition at NAALADase (IC50).

`O=C(O)CCC(C(=O)O)C(=O)NO` (stereo not drawn) [Compound 86] came in with an IC50 at NAALADase of 4 µM.

`O=C(Cc1ccc(CC(Cc2cccc(C(=O)O)c2)C(=O)O)cc1)NO` (stereo not drawn) [Compound 90]: the midpoint of inhibition against NAALADase, the IC50, lay at 25.8 µM.

Turning to `O=C(O)CCC(Cc1cccc(C(=O)NO)c1)C(=O)O` (stereo not drawn) [Compound 94], half-maximal inhibition at NAALADase (IC50) was put at 40 µM.

As to `O=C(O)CCC(CCS)C(=O)O` (stereo not drawn) [Compound D, 2-(2-sulfanylethyl)pentanedioic acid], the nerve conduction velocity result in the test with BB/W diabetic rats (10 mg/kg daily, versus diabetic vehicle controls, from 8 weeks to six months, FIG. 12) is “significantly less severe nerve conduction deficits”. In addition, the withdrawal latency result in the test on BB/W diabetic rats (10 mg/kg i.p. daily, versus diabetic vehicle-treated rats, from 4 weeks through six months of treatment, FIG. 11) was “longer withdrawal latencies”. For the same molecule, in the test on STZ-diabetic rats [1], the “motor nerve conduction velocity” value is recorded as “reversed the motor nerve conduction velocity towards normal”. Moreover, the motor nerve conduction entry in the test on STZ-diabetic rats [1] (lower doses 1 and 3 mg/kg, treatment from 7 weeks post STZ, 8 weeks after dosing) is given as “remained unimproved”. In addition, the sensory nerve conduction result with STZ-diabetic rats [1] (lower doses 1 and 3 mg/kg, treatment from 7 weeks post STZ, within 4 weeks of treatment) is given as “significantly improved towards normal”. The “sensory and motor nerve conduction velocity deficits” value in the test on STZ-diabetic rats [1] (untreated until 60 days after STZ, external CRO, FIGS. 26 and 27) is “Partial reversal of both deficits”. Also, the “hyperalgesic response (withdrawal latency difference score)” value in test [2] is recorded as “completely reversed”. The “motor and sensory nerve conduction velocities” value in the test on STZ-diabetic animals is “increased both motor and sensory nerve conduction velocities”. The “neuropathic hyperalgesia (withdrawal latency)” value in the test on STZ-diabetic rats [3] is “reversed towards normal”. In addition, the neuropathic pain abnormalities result with STZ-diabetic rats [3] (lower doses 1 and 3 mg/kg, treatment initiated 7 weeks after STZ, FIG. 23) is “Significant reduction in pain abnormalities”.

On to `O=C(O)c1cccc(CC(CCCS)C(=O)O)c1` (stereo not drawn) [Compound E, 3-carboxy-alpha-(3-mercaptopropyl)benzenepropanoic acid], for which, in the test on STZ-diabetic rats [1], the “motor nerve conduction velocity” value was “reversed the motor nerve conduction velocity towards normal”. Besides, the “neuropathic hyperalgesia (withdrawal latency)” value in the test with STZ-diabetic rats [3] is on record as “reversed towards normal”.
